Assay results as given in article PMC6887723, “Design and Synthesis of 4-(Heterocyclic Substituted Amino)-1H-Pyrazole-3-Carboxamide Derivatives and Their Potent Activity against Acute Myeloid Leukemia (AML)” (International Journal of Molecular Sciences, 2019).
Where “and” joins values, the source holds several entries; their conditions need not be identical. Identical values can stand only once.

How the values were obtained:
CDK2 = target: T1, CDK2 (Homo sapiens, UniProt P24941); assay: CDK2 kinase activity assay (Hot-Spot); assay type: biochemical; conditions: 10 μM ATP; mean ± SD, three independent experiments
T1 construct: purchased Reaction Biology Corp
Experimental: (§1) Activities of kinases were determined using Hot-SpotSM kinase assay which was performed by Reaction Biology Corp. (Malvern PA, USA) as described previously.

CDK4 = target: T2, CDK4 (Homo sapiens, UniProt P11802); assay: CDK4 kinase activity assay (Hot-Spot); assay type: biochemical; conditions: 10 μM ATP; mean ± SD, three independent experiments
T2 construct: purchased Reaction Biology Corp
Experimental: as §1

FLT3 = target: T3, FLT3 (Homo sapiens, UniProt P36888); assay: FLT3 kinase activity assay (Hot-Spot); assay type: biochemical; conditions: 10 μM ATP; mean ± SD, three independent experiments
T3 construct: purchased Reaction Biology Corp
T3 sequence (P36888 27-993): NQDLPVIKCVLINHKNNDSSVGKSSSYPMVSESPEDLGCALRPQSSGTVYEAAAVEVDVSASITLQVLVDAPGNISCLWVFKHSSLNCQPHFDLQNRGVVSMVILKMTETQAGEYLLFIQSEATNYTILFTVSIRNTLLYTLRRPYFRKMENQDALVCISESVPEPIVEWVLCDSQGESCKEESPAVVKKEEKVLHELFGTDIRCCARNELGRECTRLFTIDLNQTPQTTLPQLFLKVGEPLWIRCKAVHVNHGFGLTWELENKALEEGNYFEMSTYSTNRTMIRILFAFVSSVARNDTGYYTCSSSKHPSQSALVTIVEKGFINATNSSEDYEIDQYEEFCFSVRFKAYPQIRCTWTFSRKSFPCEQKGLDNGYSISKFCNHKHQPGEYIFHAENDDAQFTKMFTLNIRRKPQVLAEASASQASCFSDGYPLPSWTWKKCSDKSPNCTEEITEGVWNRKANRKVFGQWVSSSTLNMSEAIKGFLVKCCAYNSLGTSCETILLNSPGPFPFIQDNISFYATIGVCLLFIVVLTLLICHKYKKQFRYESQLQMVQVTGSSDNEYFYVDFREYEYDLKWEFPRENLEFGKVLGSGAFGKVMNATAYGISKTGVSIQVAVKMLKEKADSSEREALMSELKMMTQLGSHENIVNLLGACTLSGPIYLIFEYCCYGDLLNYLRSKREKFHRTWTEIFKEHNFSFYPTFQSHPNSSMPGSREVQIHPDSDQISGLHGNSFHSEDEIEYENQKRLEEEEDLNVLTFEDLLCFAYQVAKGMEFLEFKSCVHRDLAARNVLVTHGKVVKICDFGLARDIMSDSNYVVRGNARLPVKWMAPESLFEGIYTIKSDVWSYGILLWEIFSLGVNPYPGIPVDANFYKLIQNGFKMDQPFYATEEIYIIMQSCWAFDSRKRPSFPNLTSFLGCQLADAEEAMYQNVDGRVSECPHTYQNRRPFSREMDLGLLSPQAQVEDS
Experimental: as §1

MV4-11 = assay: Cell growth inhibition assay (CellTiter-Glo); assay type: cell-based; conditions: Homo sapiens, 72 h, highest test concentration 1 μM, mean ± SD, three independent experiments
Experimental: The human AML cell line MV4-11 was purchased from the American Type Culture Collection (ATCC) (Manassas, VA, USA). MV4-11 was cultured in IMDM media (Corning, Crown Bioscience Inc., Taicang, China) with 10% FBS and supplemented with 2% L-glutamine and 1% pen/strep. The MV4-11 cell line was maintained in culture media at 37 °C with 5% CO2. The effects of target compounds on MV4-11 proliferation was performed by Crown Bioscience Inc. Cells were grown in 96-well culture plates (10,000/well). The compounds of various concentrations were added into the plates. Cell proliferation was determined after treatment with compounds for 72 h. Cell viability was measured using the CellTiter-Glo assay (Promega, Crown Bioscience Inc., Taicang, China) according to the manufacturer’s instructions, and luminescence was measured in a multilabel reader (Envision2014, PerkinElmer, Crown Bioscience Inc., Taicang, China). Data were normalized to the control group (DMSO) and represented by the mean of three independent measurements with standard error of <20%. IC50 values were calculated using Prism 5.0 (GraphPad Software, San Diego, CA, USA).

BaF3 (FLT3 (ITD-F691L)) = assay: Antiproliferative activity in BaF3 cells transformed with FLT3-ITD-F691L; assay type: cell-based; conditions: Mus musculus, Table S2

T2 sequence (P11802 whole entry): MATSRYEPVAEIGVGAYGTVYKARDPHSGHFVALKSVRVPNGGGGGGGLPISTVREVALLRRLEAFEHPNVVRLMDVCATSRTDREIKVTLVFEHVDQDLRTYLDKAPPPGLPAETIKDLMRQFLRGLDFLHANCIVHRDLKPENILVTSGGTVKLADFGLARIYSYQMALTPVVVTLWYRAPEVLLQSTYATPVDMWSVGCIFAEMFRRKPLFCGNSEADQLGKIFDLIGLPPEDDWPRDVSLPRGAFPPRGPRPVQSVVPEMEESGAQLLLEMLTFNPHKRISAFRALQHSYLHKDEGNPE
T2 sequence (P24385 whole entry partner): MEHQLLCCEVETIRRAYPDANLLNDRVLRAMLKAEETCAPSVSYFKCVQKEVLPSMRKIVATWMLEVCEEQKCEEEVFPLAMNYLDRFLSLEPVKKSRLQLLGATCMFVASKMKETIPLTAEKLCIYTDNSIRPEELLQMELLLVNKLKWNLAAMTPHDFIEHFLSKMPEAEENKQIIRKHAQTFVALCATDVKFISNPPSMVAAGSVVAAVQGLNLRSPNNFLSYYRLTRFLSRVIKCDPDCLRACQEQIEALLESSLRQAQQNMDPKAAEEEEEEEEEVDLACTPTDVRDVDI

Compound | IC50 (CDK2) | IC50 (CDK4) | IC50 (FLT3) | melting point | IC50 (MV4-11) | IC50 (BaF3 (FLT3 (ITD-F691L)))
O=C(Nc1ccccc1)c1n[nH]cc1Nc1ncnc2[nH]ccc12 [Compound 3a] | 0.2 ± 0.01 nM | 34.1 ± 0.94 nM | 5.1 ± 0.46 nM | – | – | –
O=C(Nc1ccncc1)c1n[nH]cc1Nc1ncnc2[nH]ccc12 [Compound 3b] | 4.31 ± 0.91 nM | 54.2 ± 1.26 nM | 5.83 ± 0.74 nM | – | – | –
CC(C)(C)OC(=O)N1CCC(NC(=O)c2n[nH]cc2Nc2ncnc3[nH]ccc23)CC1 [Compound 3c] | 32.8 ± 1.34 nM | 87.1 ± 1.26 nM | 88.8 ± 1.06 nM | 268 to 269 °C | – | –
O=C(NC1CCNCC1)c1n[nH]cc1Nc1ncnc2[nH]ccc12 [Compound 3d] | 63.2 ± 0.91 nM | 77.4 ± 1.1 nM | 74.3 ± 1.21 nM | – | – | –
O=C(Nc1ccc(C(=O)N2CCOCC2)cc1)c1n[nH]cc1Nc1ncnc2sccc12 [Compound 8a] | 10.4 ± 0.41 nM | 33 ± 0.94 nM | 17.8 ± 0.89 nM | 243 to 244 °C | – | –
CN1CCCN(c2cccc(NC(=O)c3n[nH]cc3Nc3ncnc4[nH]ccc34)c2)CC1 [Compound 8e] | 5.49 ± 0.42 nM | 51 ± 0.88 nM | 2.71 ± 0.31 nM | 215 to 216 °C | 38.3 ± 1.21 nM | –
CN1CCCN(c2cccc(NC(=O)c3n[nH]cc3Nc3ncnc4sccc34)c2)CC1 [Compound 8f] | 31.7 ± 0.55 nM | 67.3 ± 1.09 nM | 8.07 ± 0.21 nM | > 300 °C | 54.1 ± 1.73 nM | –
O=C(Nc1ccc(N2CCNCC2)cn1)c1n[nH]cc1Nc1ncnc2sc3c(c12)CCC3 [Compound 8n] | 98.7 ± 1.33 nM | 4.85 ± 0.2 nM | 1.88 ± 0.09 nM | – | 19.9 ± 0.74 nM | –
O=C(Nc1ccc(N2CCNCC2)cn1)c1n[nH]cc1Nc1ncnc2sc3c(c12)CCCC3 [Compound 8p] | 86.4 ± 1.36 nM | 3.81 ± 0.26 nM | 7.45 ± 0.19 nM | 266 to 267 °C | – | –
O=C(Nc1ccc(N2CCNCC2)cn1)c1n[nH]cc1Nc1ncnc2c1CCC2 [Compound 8q] | 509 ± 10.3 nM | 123.4 ± 1.09 nM | 20.2 ± 0.35 nM | > 290 °C | 458 ± 9.2 nM | –

The remaining lines, values ahead:

IC50 (CDK2) | IC50 (CDK4) | IC50 (FLT3) | melting point | IC50 (MV4-11) | IC50 (BaF3 (FLT3 (ITD-F691L))) | Compound
8.42 ± 0.52 nM | 30.1 ± 0.99 nM | 19.18 ± 0.18 nM | 280 to 281 °C | 35.2 ± 0.83 nM | – | CN1CCN(C(=O)c2ccc(NC(=O)c3n[nH]cc3Nc3ncnc4sccc34)cc2)CC1 [Compound 8b]
3.51 ± 0.19 nM | 2.41 ± 0.21 nM | 0.176 ± 0.09 nM | 223 to 224 °C | 4.28 ± 0.35 nM | – | CN1CCCN(c2ccc(NC(=O)c3n[nH]cc3Nc3ncnc4sccc34)cc2)CC1 [Compound 8c]
2.32 ± 0.014 nM | 5.32 ± 0.31 nM | 0.262 ± 0.01 nM | 263 to 264 °C | 9.5 ± 0.01 nM | – | CN1CCCN(c2ccc(NC(=O)c3n[nH]cc3Nc3ncnc4[nH]ccc34)cc2)CC1 [Compound 8d]
3.74 ± 0.16 nM | 10.6 ± 0.24 nM | 1.945 ± 0.013 nM | 303 to 304 °C | 16 ± 0.43 nM | – | O=C(Nc1ccc(N2CCOCC2)cc1)c1n[nH]cc1Nc1ncnc2[nH]ccc12 [Compound 8g]
0.282 ± 0.013 nM | 1.19 ± 0.09 nM | 0.038 ± 0.001 nM | 304 to 305 °C | 7.3 ± 0.33 nM | – | O=C(Nc1ccc(N2CCNCC2)cc1)c1n[nH]cc1Nc1ncnc2[nH]ccc12 [Compound 8h]
24.5 ± 0.57 nM | 9.17 ± 0.33 nM | 3.24 ± 0.14 nM | – | 27.2 ± 0.43 nM | – | O=C(Nc1ccc(N2CC3CC2CN3)cc1)c1n[nH]cc1Nc1ncnc2sccc12 (centres unmarked) [Compound 8i]
9.64 ± 0.46 nM | 17.8 ± 0.82 nM | 2.81 ± 0.11 nM | 248 to 249 °C | 21.4 ± 0.56 nM | – | O=C(Nc1ccc(N2CC3CC2CN3)cc1)c1n[nH]cc1Nc1ncnc2[nH]ccc12 (centres unmarked) [Compound 8j, N-(4-(2,5-Diazabicyclo[2.2.1]heptan-2-yl)phenyl)-4-((7 H-pyrrolo[2,3-d]pyrimidin-4-yl)amino)-1H-pyrazole-3-carboxamide]
315.2 ± 2.3 nM | 22.3 ± 0.92 nM | 6.03 ± 0.16 nM | > 300 °C | 51.1 ± 1.34 nM | – | O=C(Nc1ccc(N2CCNCC2)cn1)c1n[nH]cc1Nc1ncnc2sccc12 [Compound 8k, N-(5-(Piperazin-1-yl)pyridin-2-yl)-4-(thieno[2,3-d]pyrimidin-4-ylamino)-1H-pyrazole-3-carboxamide]
157 ± 3.22 nM | 23.1 ± 0.55 nM | 13.8 ± 0.37 nM | 288 to 290 °C | 134 ± 1.64 nM | – | O=C(Nc1ccc(N2CCNCC2)cn1)c1n[nH]cc1Nc1ncnc2[nH]ccc12 [Compound 8l, 4-((7H-Pyrrolo[2,3-d]pyrimidin-4-yl)amino)-N-(5-(piperazin-1-yl)pyridin-2-yl)-1H-pyrazole-3-carboxamide]
109.2 ± 1.01 nM | 1.81 ± 0.023 nM | 8.28 ± 0.12 nM | – | 45.4 ± 1.07 nM | – | O=C(Nc1ccc(N2CCNCC2)cn1)c1n[nH]cc1Nc1ncnc2sc3c(c12)CCCCC3 [Compound 8o]
9.29 ± 0.64 nM | 24.9 ± 0.29 nM | 3.8 ± 0.1 nM | 267 to 268 °C | 3.28 ± 0.19 nM | – | O=C(Nc1ccc(N2CCOCC2)cc1)c1n[nH]cc1Nc1ncnc2sc3c(c12)CCCC3 [Compound 8r]
5.43 ± 0.41 nM | 4.36 ± 0.19 nM | 0.82 ± 0.003 nM | – | 9.13 ± 0.11 nM | – | O=C(Nc1ccc(N2CC3CC2CN3)cc1)c1n[nH]cc1Nc1ncnc2sc3c(c12)CCC3 (centres unmarked) [Compound 8s]
1.02 nM and 2.33 nM | 0.39 nM and 1.02 nM | – | – | 9 ± 0.27 nM | 55.9 nM | CN1CCN(Cc2ccc(NC(=O)c3n[nH]cc3Nc3ncnc4[nH]ccc34)cc2)CC1 [FN-1501, 4-((7H-Pyrrolo[2,3-D]Pyrimidin-4-Yl)Amino)-N-(4-((4-Methylpiperazin-1-Yl)Methyl)Phenyl)-1H-Pyrazole-3-Carboxamide, reference compound]
